Reference: patent publication US20050101595A1, “N-containing cycloalkyl-substituted amino-thiazole derivatives and pharmaceutical compositions for inhibiting cell proliferation and methods for their use” (PFIZER INC., priority 2003, published 2005)
Where a name gives a salt, the structure may show the parent alone. Read-outs that look alike come from different tables or passages of the source.

Columns and labels:
CDK2/Cyclin A = CDK2/Cyclin A (Homo sapiens, UniProt P24941); assay: Inhibition of CDK2/Cyclin A Retinoblastoma Kinase Activity; type: biochemical; conditions: for Ki: apparent Ki, CDK2/proteolyzed cyclin A, Rb fragment substrate, 25 μM ATP
Summary of the method: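 Baculovirus-expressed CDK2 complexed with proteolyzed cyclin A (10 or 19 nM), Rb fragment substrate, 25 μM [32P/33P]ATP, HEPES pH 7.4, 30 °C for 60 or 75 min under initial-rate conditions. Filter capture and phosphorimager readout; apparent Ki fitted to competitive or tight-binding competitive inhibition.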

HCT-116 cell line = assay: Inhibition of cell growth, tetrazolium salt (MTT) assay; type: cell-based; conditions: for IC50: HCT-116, 120 h, MTT, three to five days, read-out: HCT-116 IC50; for HCT-116 % Inhibition at 0.25 μM: 0.25 μM compound
Summary of the method: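 McCoy's 5A cultures; 4 h pre-incubation; compound dilutions in 0.5% v/v DMSO; 3–5 d, 37° C, 5% CO2; MTT 0.2 mg/mL final, 4 h; formazan dissolved in DMSO, A540; vs 0.5% DMSO vehicle.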

[1] = target: human CDK4 and genetically truncated (1-264) cyclin D3 (Homo sapiens, UniProt P11802); assay: Inhibition of CDK4/Cyclin D Retinoblastoma Kinase Activity; type: biochemical; conditions: for Ki: apparent Ki, CDK4/truncated cyclin D3, Rb fragment substrate, 25 μM ATP
Summary of the method: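 Human CDK4/truncated cyclin D3 (1-264) complex from baculovirus-infected insect cells, 5 nM, phosphorylating Rb fragment (residues 386-928, His-tagged) with 25 μM [32/33P]ATP in HEPES pH 7.4, MgCl2, 2% DMSO at 30° C. for 20 min (60 min for tight binders). Filter-captured radioactivity by phosphorimager; apparent Ki from competitive or tight-binding fits.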

[2] = Homo sapiens, first HCT-116 column (c4)
[3] = Homo sapiens, second HCT-116 column (c5)
[4] = 0.1 μM compound, HCT-116, Table 3
[5] = 0.03 μM compound, Table 4, 0.03 µM

human CDK4 and genetically truncated (1-264) cyclin D3, sequence (P11802 whole entry, the tested form may be a part): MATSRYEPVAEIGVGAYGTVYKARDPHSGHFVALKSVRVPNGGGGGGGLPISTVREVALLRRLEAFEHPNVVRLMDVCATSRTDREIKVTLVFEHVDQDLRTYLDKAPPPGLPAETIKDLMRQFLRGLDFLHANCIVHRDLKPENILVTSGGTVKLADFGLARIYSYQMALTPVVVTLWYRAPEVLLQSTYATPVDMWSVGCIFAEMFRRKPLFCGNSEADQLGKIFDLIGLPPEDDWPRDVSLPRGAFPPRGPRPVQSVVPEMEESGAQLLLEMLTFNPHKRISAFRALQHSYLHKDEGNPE
human CDK4 and genetically truncated (1-264) cyclin D3, sequence (P30281 1-264 partner): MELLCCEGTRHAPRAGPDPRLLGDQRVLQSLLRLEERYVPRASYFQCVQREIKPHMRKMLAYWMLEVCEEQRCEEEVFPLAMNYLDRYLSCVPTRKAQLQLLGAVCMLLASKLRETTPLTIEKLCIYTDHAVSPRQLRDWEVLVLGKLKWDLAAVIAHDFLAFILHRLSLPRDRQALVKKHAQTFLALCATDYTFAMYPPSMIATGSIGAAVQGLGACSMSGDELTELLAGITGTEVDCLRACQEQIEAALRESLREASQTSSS

Nc1nc(NC2CCN(S(=O)(=O)CCCSc3ccccn3)CC2)sc1C(=O)c1c(F)cccc1F [Example K21, 1-(4-Amino-2-{1-[3-(pyridin-2-ylsulfanyl)-propane-1-sulfonyl]-piperidin-4-ylamino}-thiazol-5-yl)-1-(2,6-difluoro-phenyl)-methanone]
Ki (CDK2/Cyclin A): 2.7 nM | IC50 (HCT-116 cell line; [2]): > 500 nM | IC50 (HCT-116 cell line; [3]): > 500 nM | Ki [1]: 4.4 nM

Nc1nc(NC2CCN(S(=O)(=O)c3c(Cl)cc(Cl)cc3Cl)CC2)sc1C(=O)c1c(F)cccc1F [Example P57]
CDK2 % Inhibition at 0.03 μM (CDK2/Cyclin A; 0.03 μM compound, Table 3): 23% | HCT-116 % Inhibition at 0.1 μM (HCT-116 cell line; [4]): 9% | HCT-116 % Inhibition at 0.25 μM (HCT-116 cell line; HCT-116, Table 3): 31% | CDK4 % Inhibition at 0.03 μM ([1]; 0.03 μM compound, Table 3): 6%

Nc1nc(NC2CCN(C(=O)Nc3ccc(F)cc3)CC2)sc1C(=O)c1c(F)cccc1F [Example O19]
CDK2 % Inhibition At 0.03 μM (CDK2/Cyclin A; 0.03 μM compound, Table 2): 31% | HCT-116 % Inhibition at 0.25 μM (HCT-116 cell line; HCT-116, Table 2): 7% | CDK4 % Inhibition at 0.03 μM ([1]; 0.03 μM compound, Table 2): 9%

N#Cc1c(Cl)cccc1Oc1ccc(S(=O)(=O)N2CCC(Nc3nc(N)c(C(=O)c4c(F)cccc4F)s3)CC2)cc1 [Example P52]
CDK2 % Inhibition at 0.03 μM (CDK2/Cyclin A; 0.03 μM compound, Table 3): 49% | HCT-116 % Inhibition at 0.1 μM (HCT-116 cell line; [4]): 16% | HCT-116 % Inhibition at 0.25 μM (HCT-116 cell line; HCT-116, Table 3): 22% | CDK4 % Inhibition at 0.03 μM ([1]; 0.03 μM compound, Table 3): 47%

N#Cc1ccccc1S(=O)(=O)N1CCC(Nc2nc(N)c(C(=O)c3c(F)cccc3F)s2)CC1 [Example P48]
CDK2 % Inhibition at 0.03 μM (CDK2/Cyclin A; 0.03 μM compound, Table 3): 59% | HCT-116 % Inhibition at 0.1 μM (HCT-116 cell line; [4]): 24% | HCT-116 % Inhibition at 0.25 μM (HCT-116 cell line; HCT-116, Table 3): 31% | CDK4 % Inhibition at 0.03 μM ([1]; 0.03 μM compound, Table 3): 67%

Nc1nc(NC2CCN(C(=O)NC3C[C@H]3c3ccccc3)CC2)sc1C(=O)c1c(F)cccc1F (stereo partly shown) [Example O1]
inhibition at 0.03 µM (CDK2/Cyclin A; 0.03 μM compound, Table 2): 30% | inhibition at 0.25 µM (HCT-116 cell line; Homo sapiens, HCT-116, 0.25 μM compound, HCT-116, Table 2, read-out: HCT-116 % Inhibition at 0.25 μM): 0% | inhibition at 0.03 µM ([1]; 0.03 μM compound, Table 2): -4%

Nc1nc(NC2CCN(C(=O)c3cc4ccccc4s3)CC2)sc1C(=O)c1c(F)cccc1F [Example R17]
CDK2 % Inhibition at 0.03 μM (CDK2/Cyclin A; at 0.03 μM): 66% | HCT-116 % Inhibition at 0.1 μM (HCT-116 cell line; HCT-116 cells, at 0.1 μM): 0% | HCT-116 5 Inhibition at 0.25 μM (HCT-116 cell line; HCT-116 cells): 45 | CDK4 % Inhibition at 0.03 μM ([1]; at 0.03 μM): 73%

Nc1nc(NC2CCN(C(=O)c3cccc(C(F)(F)F)c3)CC2)sc1C(=O)c1c(F)cccc1F [Example Q24]
CDK2 % Inhibition at 0.03 μM (CDK2/Cyclin A; 0.03 μM compound, Table 4): 31% | HCT-116 % Inhibition at 0.1 μM (HCT-116 cell line; 0.1 μM compound, HCT-116, Table 4): 36% | HCT-116 % Inhibition at 0.25 μM (HCT-116 cell line; HCT-116, Table 4): 71% | CDK4 % Inhibition at 0.03 μM ([1]; 0.03 μM compound, Table 4): 65%

Nc1nc(NC2CCN(S(=O)(=O)c3ccc(Oc4ccc(I)cc4)cc3)CC2)sc1C(=O)c1c(F)cccc1F [Example P86]
CDK2 % Inhibition at 0.03 μM (CDK2/Cyclin A; 0.03 μM compound, Table 3): 38% | HCT-116 % Inhibition at 0.1 μM (HCT-116 cell line; [4]): 7% | HCT-116 % Inhibition at 0.25 μM (HCT-116 cell line; HCT-116, Table 3): 26% | CDK4 % Inhibition at 0.03 μM ([1]; 0.03 μM compound, Table 3): 51%

CC(C)OC(=O)N1CCC(Nc2nc(N)c(C(=O)c3c(F)cccc3F)s2)CC1 [Example R84]
CDK2 % Inhibition at 0.03 μM (CDK2/Cyclin A; at 0.03 μM): 4% | HCT-116 % Inhibition at 0.1 μM (HCT-116 cell line; HCT-116 cells, at 0.1 μM): 0% | HCT-116 5 Inhibition at 0.25 μM (HCT-116 cell line; HCT-116 cells): 41 | CDK4 % Inhibition at 0.03 μM ([1]; at 0.03 μM): 21%

Nc1nc(NC2CCN(S(=O)(=O)c3ccc(Cc4ncc[nH]4)nc3)CC2)sc1C(=O)c1c(F)cccc1F [Example I4, 1-(4-Amino-2-{1-[6-(1H-imidazol-2-ylmethyl)-pyridine-3-sulfonyl]-piperidin-4-ylamino}-thiazol-5-yl)-1-(2,6-difluoro-phenyl)-methanone Hydrochloride]
Ki (CDK2/Cyclin A): < 1 nM | IC50 (HCT-116 cell line; [2]): 1900 nM | IC50 (HCT-116 cell line; [3]): 4700 nM | Ki [1]: 1.8 nM

CNc1ccccc1C(=O)N1CCC(Nc2nc(N)c(C(=O)c3c(F)cccc3F)s2)CC1 [Example R112]
CDK2 % Inhibition at 0.03 μM (CDK2/Cyclin A; at 0.03 μM): 12% | HCT-116 % Inhibition at 0.1 μM (HCT-116 cell line; HCT-116 cells, at 0.1 μM): 39% | HCT-116 5 Inhibition at 0.25 μM (HCT-116 cell line; HCT-116 cells): 93 | CDK4 % Inhibition at 0.03 μM ([1]; at 0.03 μM): 21%

Cc1cccc(CNCCS(=O)(=O)N2CCC(Nc3nc(N)c(C(=O)c4c(F)cccc4F)s3)CC2)c1 [Example K41, (4-Amino-2-{1-[2-(3-methyl-benzylamino)-ethanesulfonyl]-piperidin-4-ylamino}-thiazol-5-yl)-(2,6-difluoro-phenyl)-methanone]
Ki (CDK2/Cyclin A): 0.63 nM | IC50 (HCT-116 cell line; [2]): 70 nM | IC50 (HCT-116 cell line; [3]): 170 nM | Ki [1]: 1.9 nM

Nc1nc(NC2CCN(C(=O)c3cccs3)CC2)sc1C(=O)c1c(F)cccc1F [Example Q64]
CDK2 % Inhibition at 0.03 μM (CDK2/Cyclin A; [5]): 45% | HCT-116 % Inhibition at 0.1 μM (HCT-116 cell line; 0.1 μM compound, HCT-116, Table 4, 0.1 µM): 7% | HCT-116 % Inhibition at 0.25 μM (HCT-116 cell line; HCT-116, Table 4, 0.25 µM): 25% | CDK4 % Inhibition at 0.03 μM [1, 5]: 48%

Nc1nc(NC2CCN(C(=O)c3ccc(F)cc3)CC2)sc1C(=O)c1c(F)cccc1F [Example R143]
CDK2 % Inhibition at 0.03 μM (CDK2/Cyclin A; at 0.03 μM): 30% | HCT-116 % Inhibition at 0.1 μM (HCT-116 cell line; HCT-116 cells, at 0.1 μM): 0% | HCT-116 5 Inhibition at 0.25 μM (HCT-116 cell line; HCT-116 cells): 40 | CDK4 % Inhibition at 0.03 μM ([1]; at 0.03 μM): 59%
